# Experimental data reported in PubChem BioAssay AID248 (DTP/NCI, 2004).
# Where “and” joins values, the source holds several entries; their conditions need not be identical. Equal values may be shown once. Toxic doses and inconclusive results are not listed.
# Test system: L1210 leukemia ip in BDF1 mice, survival T/C
# Assay: NCI In Vivo Anticancer Drug Screen. Data for tumor model L1210 Leukemia (intraperitoneal) in B6D2F1 (BDF1) mice
# Conditions: endpoint: mean survival time, higher = longer survival
# Method in brief: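 Transplantable tumor model; survival measured in treated vs vehicle control mice. Value = treated/control.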
# [1] = dose: 100.0 mg/kg/injection, schedule: Q01DX001 (ip), vehicle: saline
# [2] = dose: 200.0 mg/kg/injection, schedule: Q01DX001 (ip), vehicle: saline
# [3] = dose: 400.0 mg/kg/injection, schedule: Q01DX001 (ip), vehicle: saline
# [4] = dose: 100.0 mg/kg/injection, schedule: Q01DX009 (ip), vehicle: Klucel (hydroxypropylcellulose) (HPC)
# [5] = dose: 200.0 mg/kg/injection, schedule: Q01DX009 (ip), vehicle: Klucel (hydroxypropylcellulose) (HPC)
compound,measurement,setting,value
CSCCC(N)C(=O)O (stereo not given),T/C,"dose: 40.0 mg/kg/injection, schedule: Q01DX009 (ip), vehicle: saline",96 % of control
same,T/C,"dose: 80.0 mg/kg/injection, schedule: Q01DX009 (ip), vehicle: saline",107 % of control
same,T/C,"dose: 100.0 mg/kg/injection, schedule: Q01DX001 (ip), vehicle: carboxymethylcellulose (CMC)",92 % of control
same,T/C,"dose: 100.0 mg/kg/injection, schedule: Q04DX003 (ip), vehicle: Klucel (hydroxypropylcellulose) (HPC)",104 % of control
same,T/C,"dose: 160.0 mg/kg/injection, schedule: Q01DX009 (ip), vehicle: saline",102 % of control
same,T/C,"dose: 200.0 mg/kg/injection, schedule: Q01DX001 (ip), vehicle: carboxymethylcellulose (CMC)",95 % of control
same,T/C,"dose: 200.0 mg/kg/injection, schedule: Q04DX003 (ip), vehicle: Klucel (hydroxypropylcellulose) (HPC)",98 % of control
same,T/C,"dose: 320.0 mg/kg/injection, schedule: Q01DX009 (ip), vehicle: saline",98 % of control
same,T/C,"dose: 400.0 mg/kg/injection, schedule: Q01DX001 (ip), vehicle: carboxymethylcellulose (CMC)",103 % of control
same,T/C,"dose: 400.0 mg/kg/injection, schedule: Q04DX003 (ip), vehicle: Klucel (hydroxypropylcellulose) (HPC)",102 % of control
N/C(=N\O)c1nn(C2OC(CO)C(O)C2O)c2ncnc(N)c12 (stereo not given),T/C,"dose: 25.0 mg/kg/injection, schedule: Q01DX005 (ip), vehicle: saline",171 % of control
C/C(=N\N1CCCCCC1)c1ccccc1,T/C,"dose: 100.0 mg/kg/injection, schedule: Q01DX009 (sc), vehicle: olive oil, sesame oil, peanut oil",95 % of control
same,T/C,"dose: 100.0 mg/kg/injection, schedule: Q04DX003 (sc), vehicle: olive oil, sesame oil, peanut oil",112 % of control
same,T/C,"dose: 200.0 mg/kg/injection, schedule: Q01DX009 (sc), vehicle: olive oil, sesame oil, peanut oil",98 % of control
same,T/C,"dose: 200.0 mg/kg/injection, schedule: Q04DX003 (sc), vehicle: olive oil, sesame oil, peanut oil",105 % of control
same,T/C,"dose: 400.0 mg/kg/injection, schedule: Q01DX009 (sc), vehicle: olive oil, sesame oil, peanut oil",97 % of control
same,T/C,"dose: 400.0 mg/kg/injection, schedule: Q04DX003 (sc), vehicle: olive oil, sesame oil, peanut oil",105 % of control
CC[N-]c1nncs1.CC[N-]c1nncs1.CC[N-]c1nncs1.CC[N-]c1nncs1.[Cl][Rh][Cl],T/C,"dose: 3.13 mg/kg/injection, schedule: Q04DX003 (ip), vehicle: distilled water + Tween-80",101 % of control
same,T/C,"dose: 6.25 mg/kg/injection, schedule: Q04DX003 (ip), vehicle: distilled water + Tween-80",104 % of control
same,T/C,"dose: 12.5 mg/kg/injection, schedule: Q04DX003 (ip), vehicle: distilled water + Tween-80",98 % of control
same,T/C,"dose: 25.0 mg/kg/injection, schedule: Q04DX003 (ip), vehicle: distilled water + Tween-80",92 % of control
same,T/C,"dose: 50.0 mg/kg/injection, schedule: Q04DX003 (ip), vehicle: distilled water + Tween-80",93 % of control
same,T/C,"dose: 100.0 mg/kg/injection, schedule: Q04DX003 (ip), vehicle: distilled water + Tween-80",104 % of control
NC(=Nc1ccc(Cl)cc1)N/N=C/c1ccc(Cl)cc1,T/C,"dose: 5.0 mg/kg/injection, schedule: Q01DX001 (ip), vehicle: saline",94 % of control
same,T/C,"dose: 10.0 mg/kg/injection, schedule: Q01DX001 (ip), vehicle: saline",100 % of control
same,T/C,"dose: 20.0 mg/kg/injection, schedule: Q01DX001 (ip), vehicle: saline",94 % of control
same,T/C,"dose: 40.0 mg/kg/injection, schedule: Q01DX001 (ip), vehicle: saline",91 % of control
same,T/C,"dose: 80.0 mg/kg/injection, schedule: Q01DX001 (ip), vehicle: saline",91 % of control
same,T/C,[1],92 % of control
same,T/C,[2],89 % of control
same,T/C,[3],103 % of control
Cl[Si](Cc1ccccc1)(Cc1ccccc1)Cc1ccccc1,T/C,[1],93 % of control
same,T/C,[2],88 % of control
same,T/C,[3],95 % of control
CC(=O)Oc1cc(C)c(OC(C)=O)c(C)c1C,T/C,"dose: 25.0 mg/kg/injection, schedule: Q01DX009 (ip), vehicle: saline with Tween-80",108 % of control
same,T/C,"dose: 25.0 mg/kg/injection, schedule: Q04DX003 (ip), vehicle: saline with Tween-80",92 % of control
same,T/C,"dose: 50.0 mg/kg/injection, schedule: Q01DX009 (ip), vehicle: saline with Tween-80",103 % of control
same,T/C,"dose: 50.0 mg/kg/injection, schedule: Q04DX003 (ip), vehicle: saline with Tween-80",94 % of control
same,T/C,"dose: 100.0 mg/kg/injection, schedule: Q01DX009 (ip), vehicle: saline with Tween-80",96 % of control
same,T/C,"dose: 100.0 mg/kg/injection, schedule: Q04DX003 (ip), vehicle: saline with Tween-80",100 % of control and 103 % of control
S=C(NCc1ccco1)Nc1ccccc1Cl,T/C,[4],100 % of control
same,T/C,[5],93 % of control
O=C(/C=C(\C(=O)c1ccccc1)c1ccccc1)c1ccc(Cl)cc1,T/C,"dose: 50.0 mg/kg/injection, schedule: Q01DX009 (ip), vehicle: Klucel (hydroxypropylcellulose) (HPC)",103 % of control
same,T/C,"dose: 75.0 mg/kg/injection, schedule: Q01DX001 (ip), vehicle: Klucel (hydroxypropylcellulose) (HPC)",100 % of control
same,T/C,[4],92 % of control
same,T/C,"dose: 150.0 mg/kg/injection, schedule: Q01DX001 (ip), vehicle: Klucel (hydroxypropylcellulose) (HPC)",95 % of control
same,T/C,[5],94 % of control
same,T/C,"dose: 300.0 mg/kg/injection, schedule: Q01DX001 (ip), vehicle: Klucel (hydroxypropylcellulose) (HPC)",108 % of control
CC1(C)CCC(C)(C)C(=O)C1=O,T/C,"dose: 10.0 mg/kg/injection, schedule: Q01DX009 (ip), vehicle: Klucel (hydroxypropylcellulose) (HPC)",105 % of control
same,T/C,"dose: 10.0 mg/kg/injection, schedule: Q04DX003 (ip), vehicle: Klucel (hydroxypropylcellulose) (HPC)",97 % of control
same,T/C,"dose: 20.0 mg/kg/injection, schedule: Q01DX001 (ip), vehicle: Klucel (hydroxypropylcellulose) (HPC)",103 % of control
same,T/C,"dose: 20.0 mg/kg/injection, schedule: Q01DX009 (ip), vehicle: Klucel (hydroxypropylcellulose) (HPC)",89 % of control
same,T/C,"dose: 20.0 mg/kg/injection, schedule: Q04DX003 (ip), vehicle: Klucel (hydroxypropylcellulose) (HPC)",102 % of control
same,T/C,"dose: 40.0 mg/kg/injection, schedule: Q01DX001 (ip), vehicle: Klucel (hydroxypropylcellulose) (HPC)",102 % of control
same,T/C,"dose: 40.0 mg/kg/injection, schedule: Q01DX009 (ip), vehicle: Klucel (hydroxypropylcellulose) (HPC)",89 % of control
same,T/C,"dose: 40.0 mg/kg/injection, schedule: Q04DX003 (ip), vehicle: Klucel (hydroxypropylcellulose) (HPC)",100 % of control
C#CC1(OCC(O)CO)CCCCC1 (stereo not given),T/C,"dose: 25.0 mg/kg/injection, schedule: Q01DX009 (ip), vehicle: water",115 % of control
same,T/C,"dose: 50.0 mg/kg/injection, schedule: Q01DX009 (ip), vehicle: water",110 % of control
same,T/C,"dose: 100.0 mg/kg/injection, schedule: Q01DX009 (ip), vehicle: water",100 % of control
same,T/C,"dose: 200.0 mg/kg/injection, schedule: Q01DX009 (ip), vehicle: water",97 % of control
